Laboratory results reported in US8648092B2, “Imidazo[1,2-a]pyridine derivatives: preparation and pharmaceutical applications” (MEI Pharma, priority 2005, dated 2014).

Columns and labels:
[1] = target: HDAC1 enzyme (recombinant GST-HDAC1) (Homo sapiens (Human), UniProt Q13547); experiment: In vitro HDAC assay for determination of IC50 values (BIOMOL fluorescent-based HDAC activity assay); type: biochemical; details: Flur de lys substrate, 2 h room temperature, read-out: IC50 (HDAC 1)
In short: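 Recombinant human GST-HDAC1, baculovirus-expressed in SF9 cells and glutathione-purified, tested with a fluorogenic deacetylase substrate; Fluor de Lys developer added for 10 min. Fluorescence at 360 nm excitation/460 nm emission; IC50 fitted from a concentration series.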

Colo205 cells = experiment: Cell-based proliferation assay for determination of GI50 values (CyQUANT); design: species or system human; details: Homo sapiens, COLO 205, 96 h treatment
In short: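 Colo205 cells in RPMI 1640 with 5% FBS, seeded 5000/well and grown 24 h at 37 °C. Exposure to compound lasted 96 h, with growth read by CyQUANT. GI50 = concentration giving 50% growth inhibition, from dose-response curves.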

[2] = tested on: acetylated histone H3 in Colo205 cells; experiment: Histone acetylation assay (immuno-blotting with acetylated histone H3 antibody); type: cell-based, human; details: 10 μM, 24 h, western blot
Procedure: Histone Acetylation Assay
A hallmark of histone deacetylase (HDAC) inhibition is the increase in the acetylation level of histones. Histone acetylation, including H3, H4 and H2A can be detected by immuno-blotting (western-blot). Colo205 cells, approximately 5×10^5 cells, were seeded in the previously described medium, cultivated for 24 h and subsequently treated with HDAC inhibitory agents and a positive control at 10 μM final concentration. After 24 h, cells were harvested and lysed according to the instruction from Sigma Mammalian Cell Lysis Kit. The protein concentration was quantified using BCA method (Sigma Pte Ltd). The protein lysate was separated using 4-12% bis-tris SDS-PAGE gel (Invitrogen Pte Ltd) and was transferred onto PVDF membrane (BioRad Pte Ltd). The membrane was probed using primary antibody specific for acetylated histone H3 (Upstate Pte Ltd). The detection antibody, goat anti rabbit antibody conjugated with HRP was used according to the manufacturing instruction (Pierce Pte Ltd). After removing the detection antibody from the membrane, an enhanced chemiluminescent substrate for detection of HRP (Pierce Pte Ltd) was added onto the membrane. After removing the substrate, the membrane was exposed to an X-ray film (Kodak) for 1 sec-20 mins. The X-ray film was developed using the X-ray film processor. The density of each band observed on the developed film could be qualitatively analysed using UVP Bioimaging software (UVP, Inc, Upland, Calif.). The values were then normalized against the density of actin in the corresponding samples to obtain the expression of the protein.
The results of immuno-blotting assay using acetylated histone H3 antibody are shown in Table 5 for representative compounds of this invention.

HDAC1 enzyme (recombinant GST-HDAC1), sequence (Q13547 whole entry): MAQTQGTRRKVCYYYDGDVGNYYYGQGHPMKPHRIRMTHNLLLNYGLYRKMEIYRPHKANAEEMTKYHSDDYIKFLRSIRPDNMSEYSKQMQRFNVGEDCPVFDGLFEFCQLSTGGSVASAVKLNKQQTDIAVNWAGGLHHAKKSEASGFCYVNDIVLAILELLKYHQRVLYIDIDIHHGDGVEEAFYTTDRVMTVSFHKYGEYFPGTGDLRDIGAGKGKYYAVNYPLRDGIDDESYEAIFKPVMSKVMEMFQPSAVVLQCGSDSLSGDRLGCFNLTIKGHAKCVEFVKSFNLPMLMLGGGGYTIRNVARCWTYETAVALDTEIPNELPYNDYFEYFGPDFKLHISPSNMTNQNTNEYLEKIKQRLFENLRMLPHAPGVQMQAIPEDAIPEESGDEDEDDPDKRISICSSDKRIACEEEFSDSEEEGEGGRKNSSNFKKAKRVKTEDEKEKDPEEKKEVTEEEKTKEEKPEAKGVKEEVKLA

- IC50 [1]: 51 nM
- GI50 (Colo205 cells): 270 nM
SMILES: CC(C)(C)NCc1c(-c2ccc(F)cc2)nc2cc(/C=C/C(=O)NO)ccn12 [Compound 64, 3-[3-(tert-Butylamino-methyl)-2-(4-fluoro-phenyl)-imidazo[1,2-a]pyridin-7-yl]-N-hydroxy-acrylamide]
- Histone acetylation activities (Histone-3) [2]: active
